Assay results taken from paper PMC9412374, “Design, Synthesis, and Development of pyrazolo[1,5-a]pyrimidine Derivatives as a Novel Series of Selective PI3Kδ Inhibitors: Part I—Indole Derivatives” (Pharmaceuticals, 2022).
Several values for one entry are separate records, joined by “and”; a condition that tells them apart may be missing. Equal entries are not always repeated. Where two headings read alike, the source gives them in different places.

How the values were obtained:
PI3Kδ = target: T1, PI3Kδ (Homo sapiens, UniProt O00329); assay: In vitro kinase inhibition assay for PI3K (ADP-Glo), PI3Kδ; format: biochemical; details: recombinant kinase, mean of two independent experiments
T1 construct: purchased Merck Millipore
Description: Tested compounds were dissolved in 100% DMSO, and obtained solutions were serially diluted in 1× reaction buffer. The recombinant kinase solution was diluted in a reaction mixture comprising 5× reaction buffer, respective compound solution (1 mM sodium diacetate 4,5-bisphosphate phosphatidylinositol (PIP2) solution in 40 mM Tris buffer), and water. In a 96-wells plate, 5 μL of compound solutions and 15 μL of the kinase solution in the reaction mixture were added per well. To initiate the interaction of chemical compounds to be tested with the enzyme, the plate was incubated for 10 min at a suitable temperature in a plate thermostat with orbital shaking at 600 rpm. Negative control wells contained all the above reagents except tested compound and kinase, and positive control wells contained all the above reagents except tested compounds. […] Subsequently, the plate was incubated for 1 h at 25 or 30 °C (depending on the PI3K isoform tested) in a plate thermostat with orbital shaking of the plate contents at 600 rpm. The reaction conditions are combined in the table below (Table 6).
Detection of ADP formed in the enzymatic reaction was then performed using ADP-Glo Kinase Assay™ (Promega, Madison, WI, USA). To the wells of a 96-well plate, 25 μL of ADP-Glo Reagent™ was added, and the plate was incubated for 40 min at 25 °C in a plate thermostat with orbital shaking at 600 rpm. Then 50 μL of Kinase Detection Reagent were added to each well, and the plate was incubated for 40 min at 25 °C in a plate thermostat with orbital shaking at 600 rpm. Once the incubation was complete, the luminescence intensity was measured using a Victor Light luminometer (Perkin Elmer, Inc., Waltham, MA, USA). IC50 values were determined based on luminescence intensity measured in wells containing tested compounds at different concentrations in relation to control wells. […] Each compound was tested at least in quadruplicates (4 wells) on two 96-well plates utilizing at least 4 wells for each control.

PI3Kα = target: T2, PI3Kα (Homo sapiens, UniProt P42336); assay: In vitro kinase inhibition assay for PI3K (ADP-Glo), PI3Kα; format: biochemical; details: for IC50: recombinant kinase, ADP-Glo, mean of two independent experiments; for Fold Selectivity α/δ: ratio of IC50 PI3Kα to IC50 PI3Kδ
T2 construct: purchased Carna Biosciences
Description: Tested compounds were dissolved in 100% DMSO, and obtained solutions were serially diluted in 1× reaction buffer. The recombinant kinase solution was diluted in a reaction mixture comprising 5× reaction buffer, respective compound solution (1 mM sodium diacetate 4,5-bisphosphate phosphatidylinositol (PIP2) solution in 40 mM Tris buffer), and water. In a 96-wells plate, 5 μL of compound solutions and 15 μL of the kinase solution in the reaction mixture were added per well. To initiate the interaction of chemical compounds to be tested with the enzyme, the plate was incubated for 10 min at a suitable temperature in a plate thermostat with orbital shaking at 600 rpm. Negative control wells contained all the above reagents except tested compound and kinase, and positive control wells contained all the above reagents except tested compounds. The enzymatic reaction was initiated by adding 5 μL of 150 μM ATP solution. Subsequently, the plate was incubated for 1 h at 25 or 30 °C (depending on the PI3K isoform tested) in a plate thermostat with orbital shaking of the plate contents at 600 rpm. The reaction conditions are combined in the table below (Table 6).
Detection of ADP formed in the enzymatic reaction was then performed using ADP-Glo Kinase Assay™ (Promega, Madison, WI, USA). To the wells of a 96-well plate, 25 μL of ADP-Glo Reagent™ was added, and the plate was incubated for 40 min at 25 °C in a plate thermostat with orbital shaking at 600 rpm. Then 50 μL of Kinase Detection Reagent were added to each well, and the plate was incubated for 40 min at 25 °C in a plate thermostat with orbital shaking at 600 rpm. Once the incubation was complete, the luminescence intensity was measured using a Victor Light luminometer (Perkin Elmer, Inc., Waltham, MA, USA). IC50 values were determined based on luminescence intensity measured in wells containing tested compounds at different concentrations in relation to control wells. These values were calculated with Graph Pad 5.03 software by fitting the curve using non-linear regression. Each compound was tested at least in quadruplicates (4 wells) on two 96-well plates utilizing at least 4 wells for each control. Averaged results of inhibition activity respective to specific isoforms of PI3K kinases for tested compounds are presented as IC50 values in Table 1, Table 2, Table 3 and Table 4.

T1 sequence (P27986 whole entry): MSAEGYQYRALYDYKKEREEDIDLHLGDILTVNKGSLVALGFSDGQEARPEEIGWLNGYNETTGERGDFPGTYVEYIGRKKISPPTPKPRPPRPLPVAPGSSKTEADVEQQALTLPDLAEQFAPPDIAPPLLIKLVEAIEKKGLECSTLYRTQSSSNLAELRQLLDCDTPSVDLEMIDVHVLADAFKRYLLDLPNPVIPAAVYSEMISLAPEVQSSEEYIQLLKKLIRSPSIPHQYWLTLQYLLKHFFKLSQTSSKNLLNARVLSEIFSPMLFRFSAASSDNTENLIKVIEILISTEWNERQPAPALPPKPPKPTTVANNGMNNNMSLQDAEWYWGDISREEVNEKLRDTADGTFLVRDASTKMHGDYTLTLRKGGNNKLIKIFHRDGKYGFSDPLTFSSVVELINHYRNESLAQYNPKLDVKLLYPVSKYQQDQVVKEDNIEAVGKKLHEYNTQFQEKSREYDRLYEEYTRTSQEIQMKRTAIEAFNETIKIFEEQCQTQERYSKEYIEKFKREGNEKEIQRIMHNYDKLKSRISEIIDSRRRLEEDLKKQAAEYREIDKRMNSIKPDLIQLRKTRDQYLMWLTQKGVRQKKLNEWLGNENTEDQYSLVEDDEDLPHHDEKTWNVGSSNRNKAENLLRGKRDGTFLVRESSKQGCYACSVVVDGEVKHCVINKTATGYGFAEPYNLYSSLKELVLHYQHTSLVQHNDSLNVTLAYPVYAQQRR
T1 sequence (O00329 whole entry): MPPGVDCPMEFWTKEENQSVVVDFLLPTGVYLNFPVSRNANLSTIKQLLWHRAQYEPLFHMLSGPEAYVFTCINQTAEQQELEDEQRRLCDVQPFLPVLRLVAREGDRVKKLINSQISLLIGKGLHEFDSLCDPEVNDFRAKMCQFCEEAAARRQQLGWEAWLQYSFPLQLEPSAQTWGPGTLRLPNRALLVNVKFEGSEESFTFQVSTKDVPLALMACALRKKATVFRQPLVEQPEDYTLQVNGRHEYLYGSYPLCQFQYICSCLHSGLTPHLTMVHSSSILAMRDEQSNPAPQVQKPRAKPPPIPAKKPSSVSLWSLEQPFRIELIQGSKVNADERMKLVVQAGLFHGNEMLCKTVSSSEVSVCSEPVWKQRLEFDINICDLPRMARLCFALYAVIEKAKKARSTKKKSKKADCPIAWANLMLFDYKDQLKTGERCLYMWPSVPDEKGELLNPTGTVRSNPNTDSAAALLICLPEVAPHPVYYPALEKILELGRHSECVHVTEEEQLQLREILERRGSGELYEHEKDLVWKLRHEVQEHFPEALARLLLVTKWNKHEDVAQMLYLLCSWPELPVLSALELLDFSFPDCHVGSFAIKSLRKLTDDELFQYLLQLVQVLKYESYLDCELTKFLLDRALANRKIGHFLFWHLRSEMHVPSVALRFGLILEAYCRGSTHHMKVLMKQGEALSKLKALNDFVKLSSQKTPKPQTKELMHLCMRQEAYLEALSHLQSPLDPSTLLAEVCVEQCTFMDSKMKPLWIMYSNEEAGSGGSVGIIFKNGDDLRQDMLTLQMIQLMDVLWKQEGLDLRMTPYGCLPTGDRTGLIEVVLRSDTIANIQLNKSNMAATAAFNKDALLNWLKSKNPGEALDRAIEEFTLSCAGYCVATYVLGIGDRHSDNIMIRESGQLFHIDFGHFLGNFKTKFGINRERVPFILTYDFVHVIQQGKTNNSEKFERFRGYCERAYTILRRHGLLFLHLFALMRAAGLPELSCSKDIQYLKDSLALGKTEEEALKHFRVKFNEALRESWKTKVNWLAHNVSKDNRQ
T2 sequence (P42336 whole entry): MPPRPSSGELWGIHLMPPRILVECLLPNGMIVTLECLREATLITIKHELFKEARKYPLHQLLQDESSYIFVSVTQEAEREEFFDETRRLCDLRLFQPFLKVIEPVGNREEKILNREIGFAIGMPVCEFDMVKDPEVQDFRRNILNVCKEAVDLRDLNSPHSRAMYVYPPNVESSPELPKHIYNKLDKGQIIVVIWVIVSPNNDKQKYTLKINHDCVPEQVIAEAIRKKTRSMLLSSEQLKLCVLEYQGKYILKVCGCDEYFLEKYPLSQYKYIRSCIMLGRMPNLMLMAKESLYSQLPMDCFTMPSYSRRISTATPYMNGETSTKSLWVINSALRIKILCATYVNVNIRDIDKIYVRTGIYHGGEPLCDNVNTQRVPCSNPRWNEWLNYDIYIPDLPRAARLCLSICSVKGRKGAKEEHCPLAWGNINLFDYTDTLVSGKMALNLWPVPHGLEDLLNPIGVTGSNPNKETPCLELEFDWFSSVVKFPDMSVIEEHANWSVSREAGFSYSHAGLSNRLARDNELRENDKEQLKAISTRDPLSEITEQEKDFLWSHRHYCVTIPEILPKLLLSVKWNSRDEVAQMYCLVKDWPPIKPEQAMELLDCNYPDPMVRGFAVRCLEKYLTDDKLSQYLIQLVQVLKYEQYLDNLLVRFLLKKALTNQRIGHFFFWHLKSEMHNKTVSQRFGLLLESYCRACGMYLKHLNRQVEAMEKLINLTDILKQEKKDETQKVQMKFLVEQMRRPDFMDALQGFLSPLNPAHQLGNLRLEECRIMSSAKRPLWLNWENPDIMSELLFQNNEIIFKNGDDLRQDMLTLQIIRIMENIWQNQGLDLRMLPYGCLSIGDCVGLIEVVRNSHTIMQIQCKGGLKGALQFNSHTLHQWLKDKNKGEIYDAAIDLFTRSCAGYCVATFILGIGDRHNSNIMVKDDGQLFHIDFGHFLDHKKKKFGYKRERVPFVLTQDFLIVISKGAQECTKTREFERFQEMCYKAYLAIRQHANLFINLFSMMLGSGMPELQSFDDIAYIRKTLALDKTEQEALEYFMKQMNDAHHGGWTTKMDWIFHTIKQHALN
T2 sequence (P27986 whole entry partner): as the sequence (P27986 whole entry) above

Compound	IC50 (PI3Kδ; read-out: IC50 PI3Kδ)	IC50 (PI3Kα; IC50 PI3Kα)	Fold Selectivity α/δ (PI3Kα)	IC50 (PI3Kδ; read-out: IC50 PI3K δ)	IC50 (PI3Kα; IC50 PI3K α)
Cc1cc(Nc2cc(N3CCOCC3)n3nc(C)cc3n2)[nH]n1 [Compound 9, 3-methyl-N-[2-methyl-7-(morpholin-4-yl)pyrazolo[1,5-a]pyrimidin-5-yl]-1H-pyrazol-5-amine]	43.6 µM	> 60 µM	>1.4		
CCNC(=O)NC1CCN(Cc2cc3nc(-c4cccc5[nH]ccc45)cc(N4CCOCC4)n3n2)CC1 [Compound 30, 3-ethyl-1-(1-((5-(1H-indol-4-yl)-7-(morpholin-4-yl)pyrazolo[1,5-a]pyrimidin-2-yl)methyl)piperidin-4-yl)urea]			39	0.36 µM	14.2 µM
Cc1cc2nc(-c3ccc(N)nc3)cc(N3CCOCC3)n2n1 [Compound 11, 2-methyl-7-(morpholin-4-yl)-5-(2-aminopyridin-5-yl)pyrazolo[1,5-a]pyrimidine]	6.86 µM	4.64 µM	0.7		
CN1CCN(Cc2cc3nc(-c4cccc5[nH]ccc45)cc(N4CCOCC4)n3n2)CC1 [Compound 33, 5-(1H-indol-4-yl)-2-((4-methyl-piperazin-1-yl)methyl)-7-(morpholin-4-yl)pyrazolo[1,5-a]pyrimidine]			220	0.193 µM	42.4 µM
COc1ccc(N2CCN(Cc3cc4nc(-c5cccc6[nH]ccc56)cc(N5CCOCC5)n4n3)CC2)cc1 [Compound 32, 5-(1H-indol-4-yl)-2-((4-(4-methoxyphenyl)piperazin-1-yl)-methyl)-7-(morpholin-4-yl)pyrazolo[1,5-a]pyrimidine]			50	0.177 µM	8.79 µM
O[C@@H]1CCN(Cc2cc3nc(-c4cccc5[nH]ccc45)cc(N4CCOCC4)n3n2)C1 [Compound 25]				1.99 µM	
Cc1cc2nc(-c3cn[nH]c3)cc(N3CCOCC3)n2n1 [Compound 10, 2-methyl-7-(morpholin-4-yl)-5-(1H-pyrazol-4-yl)pyrazolo[1,5-a]pyrimidine]	12.7 µM	36.2 µM	2.9		
c1cc(-c2cc(N3CCOCC3)n3nc(CN4CCN(C5COC5)CC4)cc3n2)c2cc[nH]c2c1 [Compound 42]			334	0.056 µM	18.7 µM
CCc1nc2ccccc2n1-c1cc(N2CCOCC2)n2nc(C)cc2n1 [Compound 6, 2-methyl-5-(2-ethylbenzimidazol-1-yl)-7-(morpholin-4-yl)pyrazolo[1,5-a]pyrimidine]	2.3 µM	25.9 µM	11		
O=S1(=O)CCN(Cc2cc3nc(-c4cccc5[nH]ccc45)cc(N4CCOCC4)n3n2)CC1 [Compound 27, 2-((1,1-dioxothiomorpholin-1-yl)-methyl)-5-(1H-indol-4-yl)-7-(morpholin-4-yl)pyrazolo[1,5-a]pyrimidine]			33	0.266 µM	8.65 µM
c1cc(-c2cc(N3CCOCC3)n3nc(CN4CCN(CC5CC5)CC4)cc3n2)c2cc[nH]c2c1 [Compound 45, 2-((4-(cyclopropylmethyl)piperazin-1-yl)methyl)-5-(1H-indol-4-yl)-7-(morpholin-4-yl)pyrazolo[1,5-a]pyrimidine]			218	0.029 µM	6.32 µM
Cc1cc2nc(-n3c(C(F)F)nc4ccccc43)cc(N3CCOCC3)n2n1 [Compound 7, 2-methyl-5-(2-difluoromethylbenzimidazol-1-yl)-7-(morpholin-4-yl)pyrazolo[1,5-a]pyrimidine]	0.47 µM and 0.475 µM	1.06 µM	2.2		
Cc1cc2nc(-n3c(C)nc4ccccc43)cc(N3CCOCC3)n2n1 [Compound 5, 2-methyl-5-(2-methylbenzimidazol-1-yl)-7-(morpholin-4-yl)pyrazolo[1,5-a]pyrimidine]	3.56 µM	35.1 µM	9.9		
c1cc(-c2cc(N3CCOCC3)n3nc(CN4CC5CC4CN5C4COC4)cc3n2)c2cc[nH]c2c1 [Compound 43, 5-(1H-indol-4-yl)-2-(((1S, 4S)-2-(oxetan-3-yl)-2,5-diaza-bicyclo [2.2.1]hept-2-yl)methyl)-7-(morpholin-4-yl)pyrazolo[1,5-a]pyrimidine]			318	0.071 µM	22.6 µM
c1cc(-c2cc(N3CCOCC3)n3nc(CN4CCN(C5CCCC5)CC4)cc3n2)c2cc[nH]c2c1 [Compound 40, 2-((4-cyclopentylpiperazin-1-yl)methyl)-5-(1H-indol-4-yl)-7-(morpholin-4-yl)pyrazolo[1,5-a]pyrimidine]			329	0.042 µM	13.8 µM
COC(=O)C1CCN(Cc2cc3nc(-c4cccc5[nH]ccc45)cc(N4CCOCC4)n3n2)CC1 [Compound 35, Methyl 1-((5-(1H-indol-4-yl)-7-(morpholin-4-yl)pyrazolo[1,5-a]pyrimidin-2-yl)methyl)piperidin-4-carboxylate]			61	0.138 µM	8.46 µM
Cc1cc2nc(-c3cccc4[nH]ncc34)cc(N3CCOCC3)n2n1 [Compound 12, 2-methyl-7-(morpholin-4-yl)-5-(1H-indazole-4-yl)pyrazolo[1,5-a]pyrimidine]	3.85 µM	4.81 µM	1.2		
CS(=O)(=O)N1CCN(Cc2cc3nc(-c4cccc5[nH]ccc45)cc(N4CCOCC4)n3n2)CC1 [Compound 23, 5-(1H-indol-4-yl)-2-((4-(methyl-sulphonyl)piperazin-1-yl)methyl)-7-(morpholin-4-yl)pyrazolo[1,5-a]pyrimidine]	0.4 µM	2.35 µM	5.8	0.402 µM	2.35 µM
CN1CCN(C2CCN(Cc3cc4nc(-c5cccc6[nH]ccc56)cc(N5CCOCC5)n4n3)CC2)CC1 [Compound 29, 5-(1H-indol-4-yl)-2-((4-(4-methylpiperazin-1-yl)piperidin-1-yl)methyl)-7-(morpholin-4-yl)pyrazolo[1,5-a]pyrimidine]			301	0.052 µM	15.6 µM
c1cc(-c2cc(N3CCOCC3)n3nc(CN4CCOCC4)cc3n2)c2cc[nH]c2c1 [Compound 28, 5-(1H-indol-4-yl)-7-(morpholin-4-yl)-2-((morpholin-4-yl)methyl)pyrazolo[1,5-a]pyrimidine]				1.07 µM	
Cc1cc2nc(-c3cccc4[nH]ccc34)cc(N3CCOCC3)n2n1 [Compound 13, 2-methyl-7-(morpholin-4-yl)-5-(1H-indole-4-yl)pyrazolo[1,5-a]pyrimidine]	0.772 µM	23.5 µM	30		
O=C(Nc1ccccc1)NC1CCN(Cc2cc3nc(-c4cccc5[nH]ccc45)cc(N4CCOCC4)n3n2)CC1 [Compound 31, 1-phenyl-3-(1-((5-(1H-indol-4-yl)-7-(morpholin-4-yl)pyrazolo[1,5-a]pyrimidin-2-yl)methyl)piperidin-4-yl)urea]				0.559 µM	
O[C@H]1CCN(Cc2cc3nc(-c4cccc5[nH]ccc45)cc(N4CCOCC4)n3n2)C1 [Compound 26]				2.21 µM	
